From patent publication US10968178B2, “IP6K inhibitors” (TAKEDA PHARMACEUTICAL COMPANY LIMITED, priority 2017, dated 2021)

Columns and labels:
Format in all cases: biochemical
human IP6K2 = target: T1, human IP6K2 (Homo sapiens, UniProt Q9UHH9); experiment: IP6K enzyme inhibitory assay (ADP-Glo Kinase Assay), human IP6K2; conditions: compound concentration 0.1 μM; read-out: ADP-Glo method inhibitory rate (%) human IP6K2
T1 construct: human IP6K2 (1-426) gene; GST; made in house; host or cells: Sf-9 insect cells
T1 sequence (Q9UHH9 1-426): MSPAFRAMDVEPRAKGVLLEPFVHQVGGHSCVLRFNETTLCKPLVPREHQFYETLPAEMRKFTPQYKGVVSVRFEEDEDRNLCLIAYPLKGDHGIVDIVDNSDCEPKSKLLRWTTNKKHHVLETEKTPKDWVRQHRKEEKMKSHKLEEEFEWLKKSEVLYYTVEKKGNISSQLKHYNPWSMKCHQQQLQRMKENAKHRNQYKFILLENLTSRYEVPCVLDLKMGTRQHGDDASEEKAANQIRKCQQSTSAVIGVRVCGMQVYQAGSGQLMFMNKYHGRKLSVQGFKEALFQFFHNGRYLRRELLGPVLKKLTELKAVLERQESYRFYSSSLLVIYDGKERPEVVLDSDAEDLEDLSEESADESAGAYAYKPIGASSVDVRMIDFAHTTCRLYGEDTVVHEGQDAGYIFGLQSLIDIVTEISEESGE
Procedure: (§1) IP6K Enzyme Inhibitory Assay
(§2) Human IP6K3 enzyme was prepared by transducing human IP6K3 (1-410) gene into BL21 (DE3) Escherichia coli and purifying by Ni-NTA (nickel-nitrilotriacetic acid) affinity column. […] The enzymes were used after preservation at −70° C. The IP6K enzyme inhibitory activity of the test compound was measured by the following experiment method and using ADP-Glo™ Kinase Assay (manufactured by Promega). A test compound diluted with an assay buffer (20 mM HEPES (pH 7.5), 6 mM MgCl2, 0.01% Tween-20, 1 mM DTT) was first added by 2 μL to a 384 well plate. […] The IP6K enzyme solution diluted with the assay buffer was added by 2 μL to start the enzyme reaction. Incubation was performed at room temperature for a given time (120 min for rat IP6K3 alone, 60 min for others). After incubation at room temperature, ADP-Glo solution prepared according to the protocol of Promega was added by 3 μL to the 384 well plate and reacted at room temperature for 30 min. Thereafter, Kinase-Detection solution was added by 6 μL to the 384 well plate and reacted at room temperature for 60 min. After the reaction, the luminescence intensity was measured by a plate reader Envision (manufactured by PerkinElmer).

human IP6K1 = target: T2, human IP6K1 (Homo sapiens, UniProt Q92551); experiment: IP6K enzyme inhibitory assay (ADP-Glo Kinase Assay), human IP6K1; conditions: compound concentration 0.1 μM; read-out: ADP-Glo method inhibitory rate (%) human IP6K1
T2 construct: human IP6K1 (1-441) gene; GST; made in house; host or cells: Sf-9 insect cells
Procedure: as §1, §2

human IP6K3 = target: T3, human IP6K3 (Homo sapiens, UniProt Q96PC2); experiment: IP6K enzyme inhibitory assay (ADP-Glo Kinase Assay), human IP6K3; conditions: compound concentration 0.1 μM; read-out: ADP-Glo method inhibitory rate (%) human IP6K3
T3 construct: human IP6K3 (1-410) gene; made in house; host or cells: BL21 (DE3) Escherichia coli
T3 sequence (Q96PC2 1-410): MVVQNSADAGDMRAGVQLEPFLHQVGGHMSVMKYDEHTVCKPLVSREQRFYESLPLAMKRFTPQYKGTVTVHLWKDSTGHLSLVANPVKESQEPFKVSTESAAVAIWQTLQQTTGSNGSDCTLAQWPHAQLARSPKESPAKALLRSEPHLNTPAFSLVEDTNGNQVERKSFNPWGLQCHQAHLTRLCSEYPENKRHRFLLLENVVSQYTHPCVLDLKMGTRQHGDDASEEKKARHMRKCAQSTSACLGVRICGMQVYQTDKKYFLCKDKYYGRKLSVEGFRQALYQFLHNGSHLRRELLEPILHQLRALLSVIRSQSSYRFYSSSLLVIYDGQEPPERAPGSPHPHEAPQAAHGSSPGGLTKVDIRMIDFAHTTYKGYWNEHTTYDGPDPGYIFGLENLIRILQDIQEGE
Procedure: as §1, §2

T2 sequence (Q92551 whole entry): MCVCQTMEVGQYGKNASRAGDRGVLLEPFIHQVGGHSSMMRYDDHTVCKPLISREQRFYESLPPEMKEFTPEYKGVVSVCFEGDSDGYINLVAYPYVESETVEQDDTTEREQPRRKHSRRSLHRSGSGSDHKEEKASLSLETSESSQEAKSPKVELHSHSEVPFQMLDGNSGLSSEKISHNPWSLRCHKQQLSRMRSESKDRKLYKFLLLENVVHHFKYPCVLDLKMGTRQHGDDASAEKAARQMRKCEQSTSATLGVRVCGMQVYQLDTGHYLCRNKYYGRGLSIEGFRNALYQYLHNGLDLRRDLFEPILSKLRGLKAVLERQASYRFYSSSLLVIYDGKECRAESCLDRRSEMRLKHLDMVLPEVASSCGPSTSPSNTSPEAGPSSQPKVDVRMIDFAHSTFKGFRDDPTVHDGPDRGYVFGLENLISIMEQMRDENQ

Compound	inhibition at 0.1 µM (human IP6K2)	inhibition at 0.1 µM (human IP6K1)	inhibition at 0.1 µM (human IP6K3)
O=C(O)c1ccc2c(c1)[C@]1(CC[C@@H](Oc3ccc(Cl)cc3Cl)CC1)C(=O)N2 [Example 1, (1r,4r)-4-(2,4-dichlorophenoxy)-2′-oxo-1′,2′-dihydrospiro[cyclohexane-1,3′-indole]-5′-carboxylic acid]	100%	100%	99%
O=C(O)c1ccc2c(c1)[C@]1(CC[C@@H](Oc3ccc(F)cc3)CC1)C(=O)N2 [Example 2]	94%	101%	100%
O=C(O)c1ccc2c(c1)[C@]1(CC[C@@H](Oc3c(Cl)cc(Cl)cc3Cl)CC1)C(=O)N2 [Example 3, (1r,4r)-2′-oxo-4-(2,4,6-trichlorophenoxy)-1′,2′-dihydrospiro[cyclohexane-1,3′-indole]-5′-carboxylic acid]	101%	101%	85%
O=C(O)c1ccc2c(c1)[C@]1(CC[C@@H](Oc3ncc(F)cc3F)CC1)C(=O)N2 [Example 4, (1r,4r)-4-((3,5-difluoropyridin-2-yl)oxy)-2′-oxo-1′,2′-dihydrospiro[cyclohexane-1,3′-indole]-5′-carboxylic acid]	79%	66%	99%
O=C(O)c1ccc2c(c1)[C@]1(CC[C@H](Oc3cc(F)cnc3F)CC1)C(=O)N2 [Example 5, (1s,4s)-4-((2,5-difluoropyridin-3-yl)oxy)-2′-oxo-1′,2′-dihydrospiro[cyclohexane-1,3′-indole]-5′-carboxylic acid]	89%	86%	94%
O=C(O)c1ccc2c(c1)[C@]1(CC[C@@H](Oc3ccc(C(F)(F)F)nc3)CC1)C(=O)N2 [Example 6, (1r,4r)-2′-oxo-4-((6-(trifluoromethyl)pyridin-3-yl)oxy)-1′,2′-dihydrospiro[cyclohexane-1,3′-indole]-5′-carboxylic acid]	93%	96%	97%
N#Cc1cc(Cl)ccc1O[C@H]1CC[C@@]2(CC1)C(=O)Nc1ccc(C(=O)O)cc12 [Example 7, (1r,4r)-4-(4-chloro-2-cyanophenoxy)-2′-oxo-1′,2′-dihydrospiro[cyclohexane-1,3′-indole]-5′-carboxylic acid]	101%	100%	86%
NC(=O)c1cc(Cl)ccc1O[C@H]1CC[C@@]2(CC1)C(=O)Nc1ccc(C(=O)O)cc12 [Example 8, (1r,4r)-4-(2-carbamoyl-4-chlorophenoxy)-2′-oxo-1′,2′-dihydrospiro[cyclohexane-1,3′-indole]-5′-carboxylic acid]	97%	100%	95%
O=C(O)c1ccc2c(c1)[C@]1(CC[C@@H](Oc3ccc(C(F)(F)F)cc3)CC1)C(=O)N2 [Example 10, (1r,4r)-2-oxo-4-(4-(trifluoromethyl)phenoxy)-1′,2′-dihydrospiro[cyclohexane-1,3′-indole]-5′-carboxylic acid]	100%	98%	102%
O=C(O)c1ccc2c(c1)[C@]1(CC[C@@H](Oc3ccc(Cl)cn3)CC1)C(=O)N2 [Example 11, (1r,4r)-4-((5-chloropyridin-2-yl)oxy)-2′-oxo-1′,2′-dihydrospiro[cyclohexane-1,3′-indole]-5′-carboxylic acid]	97%	100%	102%
O=C(O)c1ccc2c(c1)[C@]1(CC[C@@H](Oc3ccccc3Cl)CC1)C(=O)N2 [Example 12, (1r,4r)-4-(2-chlorophenoxy)-2′-oxo-1′,2′-dihydrospiro[cyclohexane-1,3′-indole]-5′-carboxylic acid]	97%	95%	101%
O=C(O)c1ccc2c(c1)[C@]1(CC[C@H](Oc3ncc(F)cc3F)CC1)C(=O)N2 [Example 13, (1s,4s)-4-((3,5-difluoropyridin-2-yl)oxy)-2′-oxo-1′,2′-dihydrospiro[cyclohexane-1,3′-indole]-5′-carboxylic acid]	97%	100%	100%
O=C(O)c1ccc2c(c1)[C@]1(CC[C@H](Oc3ccc(Cl)cc3Cl)CC1)C(=O)N2 [Example 15, (1s,4s)-4-(2,4-dichlorophenoxy)-2′-oxo-1′,2′-dihydrospiro[cyclohexane-1,3′-indole]-5′-carboxylic acid]	101%	99%	91%
O=C(O)c1ccc2c(n1)[C@]1(CC[C@@H](Oc3ncc(C4CC4)cc3Cl)CC1)C(=O)N2 [Example 16, (1r,4r)-4-((3-chloro-5-cyclopropylpyridin-2-yl)oxy)-2′-oxo-1′,2′-dihydrospiro[cyclohexane-1,3′-pyrrolo[3,2-b]pyridine]-5′-carboxylic acid]	89%	99%	98%
Cc1cc(Cl)cnc1O[C@H]1CC[C@@]2(CC1)C(=O)Nc1ccc(C(=O)O)nc12 [Example 17, (1r,4r)-4-((5-chloro-3-methylpyridin-2-yl)oxy)-2′-oxo-1′,2′-dihydrospiro[cyclohexane-1,3′-pyrrolo[3,2-b]pyridine]-5′-carboxylic acid]	91%	92%	93%
Cc1ccc(C(F)(F)F)c(O[C@H]2CC[C@@]3(CC2)C(=O)Nc2ccc(C(=O)O)nc23)n1 [Example 18, (1r,4r)-4-((6-methyl-3-(trifluoromethyl)pyridin-2-yl)oxy)-2′-oxo-1′,2′-dihydrospiro[cyclohexane-1,3′-pyrrolo[3,2-b]pyridine]-5′-carboxylic acid]	62%	54%	77%
O=C(O)c1ccc2c(c1)[C@]1(CC[C@@H](Oc3ccccn3)CC1)C(=O)N2 [Example 19, (1r,4r)-2′-oxo-4-[pyridin-2-yloxy)-1′,2′-dihydrospiro[cyclohexane-1,3′-indole]-5′-carboxylic acid]	45%	40%	70%
Cc1ccc(O[C@H]2CC[C@@]3(CC2)C(=O)Nc2ccc(C(=O)O)cc23)nc1 [Example 20, (1r,4r)-4-((5-methylpyridin-2-yl)oxy)-2′-oxo-1′,2′-dihydrospiro[cyclohexane-1,3′-indole]-5′-carboxylic acid]	95%	79%	98%
Cc1cccnc1O[C@H]1CC[C@@]2(CC1)C(=O)Nc1ccc(C(=O)O)cc12 [Example 21, (1r,4r)-4-((3-methylpyridin-2-yl)oxy)-2′-oxo-1′,2′-dihydrospiro[cyclohexane-1,3′-indole]-5′-carboxylic acid]	91%	79%	96%
O=C(O)c1ccc2c(c1)[C@]1(CC[C@@H](Oc3ccc(F)cn3)CC1)C(=O)N2 [Example 22, (1r,4r)-4-((5-fluoropyridin-2-yl)oxy)-2′-oxo-1′,2′-dihydrospiro[cyclohexane-1,3′-indole]-5′-carboxylic acid]	72%	72%	90%
